14 molecules from US20240398784A1, “C-LINKED ISOQUINOLINE AMIDES AS LRRK2 INHIBITORS, PHARMACEUTICAL COMPOSITIONS, AND USES THEREOF” (Merck Sharp & Dohme LLC, priority 2021, published 2024) can be followed below.

For the assay, the target named is LRRK2 G2019S (Homo sapiens, UniProt Q5S007, G2019S). The assay is described as follows: LRRK2 G2019S Km ATP LanthaScreen assay. In kind it is biochemical. To be noted: for IC50: read-out: LRRK2 pIC50 (converted). In general terms: Time-resolved FRET reads energy transfer from a long-lived donor to a nearby acceptor.
Chain of LRRK2 G2019S (Q5S007 whole entry G2019S): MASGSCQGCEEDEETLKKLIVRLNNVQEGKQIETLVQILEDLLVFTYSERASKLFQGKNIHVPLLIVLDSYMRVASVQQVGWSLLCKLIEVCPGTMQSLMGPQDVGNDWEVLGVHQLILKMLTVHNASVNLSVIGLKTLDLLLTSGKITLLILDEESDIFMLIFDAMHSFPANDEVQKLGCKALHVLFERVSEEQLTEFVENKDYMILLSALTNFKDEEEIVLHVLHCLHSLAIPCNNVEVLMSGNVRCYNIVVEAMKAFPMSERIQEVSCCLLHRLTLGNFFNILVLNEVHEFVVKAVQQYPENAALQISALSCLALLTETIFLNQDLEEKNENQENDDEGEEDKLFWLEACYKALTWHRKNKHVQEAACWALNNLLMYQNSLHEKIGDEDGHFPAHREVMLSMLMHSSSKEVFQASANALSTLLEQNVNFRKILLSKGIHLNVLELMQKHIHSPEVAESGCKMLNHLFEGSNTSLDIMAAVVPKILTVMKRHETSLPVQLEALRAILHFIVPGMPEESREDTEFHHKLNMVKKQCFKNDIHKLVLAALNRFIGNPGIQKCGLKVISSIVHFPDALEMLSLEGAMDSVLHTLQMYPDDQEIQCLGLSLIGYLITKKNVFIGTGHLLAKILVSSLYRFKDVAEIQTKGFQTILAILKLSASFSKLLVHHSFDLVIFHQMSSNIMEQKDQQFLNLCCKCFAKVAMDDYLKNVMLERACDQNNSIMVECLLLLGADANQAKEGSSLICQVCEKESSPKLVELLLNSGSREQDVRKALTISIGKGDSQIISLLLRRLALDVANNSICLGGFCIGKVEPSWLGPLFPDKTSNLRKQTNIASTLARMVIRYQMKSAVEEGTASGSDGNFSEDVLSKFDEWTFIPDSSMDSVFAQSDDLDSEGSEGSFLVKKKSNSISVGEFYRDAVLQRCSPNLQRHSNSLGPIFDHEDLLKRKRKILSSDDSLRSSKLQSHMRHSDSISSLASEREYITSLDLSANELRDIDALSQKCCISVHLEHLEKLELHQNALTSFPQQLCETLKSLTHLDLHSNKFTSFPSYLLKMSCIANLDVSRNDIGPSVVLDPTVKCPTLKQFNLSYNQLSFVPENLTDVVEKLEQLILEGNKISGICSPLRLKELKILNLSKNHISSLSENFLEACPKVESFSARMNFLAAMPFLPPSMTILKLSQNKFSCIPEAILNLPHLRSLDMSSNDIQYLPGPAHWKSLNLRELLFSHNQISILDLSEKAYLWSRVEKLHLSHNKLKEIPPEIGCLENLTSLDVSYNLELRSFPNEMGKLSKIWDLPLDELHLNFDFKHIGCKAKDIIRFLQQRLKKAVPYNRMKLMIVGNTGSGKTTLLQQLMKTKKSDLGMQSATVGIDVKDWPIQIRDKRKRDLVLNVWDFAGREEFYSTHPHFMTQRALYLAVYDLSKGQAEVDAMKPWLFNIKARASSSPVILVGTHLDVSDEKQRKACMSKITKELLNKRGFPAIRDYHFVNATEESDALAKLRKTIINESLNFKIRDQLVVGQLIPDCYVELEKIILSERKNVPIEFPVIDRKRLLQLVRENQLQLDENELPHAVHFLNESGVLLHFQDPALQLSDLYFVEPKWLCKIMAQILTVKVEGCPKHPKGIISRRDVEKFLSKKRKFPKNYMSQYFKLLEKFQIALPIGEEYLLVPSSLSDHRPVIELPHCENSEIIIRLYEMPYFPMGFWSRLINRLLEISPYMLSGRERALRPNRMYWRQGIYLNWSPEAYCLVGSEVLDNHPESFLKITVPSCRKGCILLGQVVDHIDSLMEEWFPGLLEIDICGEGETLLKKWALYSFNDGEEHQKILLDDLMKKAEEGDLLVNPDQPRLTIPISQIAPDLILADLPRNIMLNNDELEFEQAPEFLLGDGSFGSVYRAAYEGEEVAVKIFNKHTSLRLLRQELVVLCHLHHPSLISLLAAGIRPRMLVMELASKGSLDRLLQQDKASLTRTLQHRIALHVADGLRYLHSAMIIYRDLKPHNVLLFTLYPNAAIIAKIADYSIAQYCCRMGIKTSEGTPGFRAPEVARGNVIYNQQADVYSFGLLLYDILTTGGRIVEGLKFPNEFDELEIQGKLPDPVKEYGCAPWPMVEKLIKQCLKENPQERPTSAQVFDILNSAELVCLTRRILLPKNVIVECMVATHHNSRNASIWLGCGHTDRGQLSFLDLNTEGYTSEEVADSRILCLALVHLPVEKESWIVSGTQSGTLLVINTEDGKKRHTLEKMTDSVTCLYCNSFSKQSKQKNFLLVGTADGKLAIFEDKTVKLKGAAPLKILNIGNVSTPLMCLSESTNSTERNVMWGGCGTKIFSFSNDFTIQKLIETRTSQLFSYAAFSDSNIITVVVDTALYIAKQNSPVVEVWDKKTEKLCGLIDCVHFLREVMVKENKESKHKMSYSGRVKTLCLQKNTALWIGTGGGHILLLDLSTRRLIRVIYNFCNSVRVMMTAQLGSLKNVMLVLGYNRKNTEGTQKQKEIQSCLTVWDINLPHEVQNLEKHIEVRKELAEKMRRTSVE

`CC1(C)CC(C(=O)Nc2cc3cc(C4CCN(C5(C)COCC5O)CC4)c(Cl)cc3cn2)CO1` (centres unmarked) [Ex-2.30]: the IC50 was 0.126 nM. Same read-out and setting: in the case of `CC1(N2CCC(c3cc4cc(NC(=O)C5CC5c5ccccn5)ncc4cc3Cl)CC2)CCOC1` (single isomer, unassigned) [Ex-6.32, N-(7-chloro-6-(1-(3-methyltetrahydrofuran-3-yl)piperidin-4-yl)isoquinolin-3-yl)-2-(pyridin-2-yl)cyclopropane-1-carboxamide] it was 5.62 nM; in that of `CC1(N2CCC(c3cc4cc(NC(=O)[C@@H]5CCCO5)ncc4cc3Cl)CC2)COCC1O` (some centres unmarked) [Ex-2.28], 0.513 nM. Consider `Cn1ncc(C2CC2C(=O)Nc2cc3cc(C4CCN(C5(C)COCC5O)CC4)c(Cl)cc3cn2)n1` [Ex-20.1, (1R,2R and 1S,2S)-N-(7-chloro-6-(1-(4-hydroxy-3-methyltetrahydrofuran-3-yl)piperidin-4-yl)isoquinolin-3-yl)-2-(2-methyl-2H-1,2,3-triazol-4-yl)cyclopropane-1-carboxamide], for which the “LRRK2 pIC50” value stood at 10.09.

On to `N#CC1(c2ccc3cnc(NC(=O)C4CC45CCOC5)cc3c2)CC12CC2` (centres unmarked) [Ex-2.66], for which the IC50 is 14.5 nM. As for `Cc1cc2cnc(NC(=O)C3CC34CCOC4)cc2cc1C1CCN(C2(C)COCC2F)CC1` (single isomer, unassigned) [Ex-15.13, N-(6-(1-(4-fluoro-3-methyltetrahydrofuran-3-yl)piperidin-4-yl)-7-methylisoquinolin-3-yl)-5-oxaspiro[2.4]heptane-1-carboxamide], the IC50 is 2.69 nM.

With `O=C(Nc1cc2cc(C3CCN(C4COC4)CC3)c(Cl)cc2cn1)C1CC1(F)F` (single isomer, unassigned) [Ex-1.5, (R or S)-N-(7-chloro-6-(1-(oxetan-3-yl)piperidin-4-yl)isoquinolin-3-yl)-2,2-difluorocyclopropane-1-carboxamide], the IC50 is 5.89 nM. Still for that read-out and setting: in the case of `CC1(N2CCC(c3cc4cc(NC(=O)C5CC56CCOCC6)ncc4cc3Cl)CC2)CCOC1` (centres unmarked) [Ex-2.22] it was 4.57 nM; in that of `CC1(c2ccccn2)CC1C(=O)Nc1cc2cc(C3CCN(C4(C)COCC4O)CC3)c(Cl)cc2cn1` (centres unmarked) [Ex-2.91], 240 nM. Take `CC1(N2CCC(c3cc4cc(NC(=O)C5CC5c5ccco5)ncc4cc3Cl)CC2)COCC1O` (single isomer, unassigned) [Ex-4.66, N-(7-chloro-6-(1-(4-hydroxy-3-methyltetrahydrofuran-3-yl)piperidin-4-yl)isoquinolin-3-yl)-2-(furan-2-yl)cyclopropane-1-carboxamide]: the IC50 is 0.0813 nM.

Turning to `COCC(C)c1cc2cc(NC(=O)C3CC3c3ccccn3)ncc2cc1Cl` (single isomer, unassigned) [Ex-9.19, N-(7-chloro-6-(1-methoxypropan-2-yl)isoquinolin-3-yl)-2-(pyridin-2-yl)cyclopropane-1-carboxamide], the IC50 was 11 nM. Consider `O=C(Nc1cc2cc(C3CCN(C4COCC4O)CC3)c(Cl)cc2cn1)C1CC12CCOCC2` (single isomer, unassigned) [Ex-4.2, (R or S)-N-(7-chloro-6-(1-((3R,4R or 3R, 4R)-4-hydroxytetrahydrofuran-3-yl)piperidin-4-yl)isoquinolin-3-yl)-6-oxaspiro[2.5]octane-1-carboxamide], for which the IC50 is 2.82 nM. The same measure, in the same setting: the value for `N#CC1(c2ccc3cnc(NC(=O)C4CC4c4ccccn4)cc3c2)CC12CC2` (centres unmarked) [Ex-2.38] was 2.04 nM.

With `CC1(N2CCC(c3cc4cc(NC(=O)C5CC5c5ccncc5)ncc4cc3Cl)CC2)COCC1O` (single isomer, unassigned) [Ex-4.21, N-(7-chloro-6-(1-(4-hydroxy-3-methyltetrahydrofuran-3-yl)piperidin-4-yl)isoquinolin-3-yl)-2-(pyridin-4-yl)cyclopropane-1-carboxamide], the IC50 is 0.0813 nM.
